According to patent US9062028B2, “Bicyclic nitrogen containing heteroaryl TGR5 receptor modulators” (Bristol-Myers Squibb Company, priority 2011, dated 2015):
Where a name gives a salt, the structure may show the parent alone.

Target: T1, recombinant human TGR5 (Homo sapiens, UniProt Q8TDU6)
T1 construct: expressed in transfected cells
T1 sequence (Q8TDU6 1-330): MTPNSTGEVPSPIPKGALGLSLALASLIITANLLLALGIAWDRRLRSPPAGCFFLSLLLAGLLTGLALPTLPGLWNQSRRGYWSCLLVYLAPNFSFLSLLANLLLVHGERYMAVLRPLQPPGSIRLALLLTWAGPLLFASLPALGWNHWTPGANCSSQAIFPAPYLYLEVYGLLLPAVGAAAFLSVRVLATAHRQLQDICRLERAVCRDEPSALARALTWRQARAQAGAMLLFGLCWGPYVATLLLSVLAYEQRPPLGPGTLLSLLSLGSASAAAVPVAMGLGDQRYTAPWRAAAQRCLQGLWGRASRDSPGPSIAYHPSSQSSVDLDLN
Assay: cAMP assay (cAMP accumulation, HTRF) in CHOK1 cells stably expressing TGR5
Format: cell-based
Settings: CHOK1 cells stably expressing human TGR5, 30 minutes at RT, 1% DMSO
How it was run: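 Agonist-induced cAMP accumulation: stable TGR5-CHOK1 cells treated 30 min at RT with compound (1% DMSO) plus 0.1 mM IBMX. HTRF ratio converted to nM cAMP via standard curve; EC50 from four-parameter logistic fit, midpoint between baseline and maximum.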

EC50 | Compound
189 nM | Cc1cccc(OCCCC(=O)N2CCCOc3c(-c4cnn(Cc5c(F)cc(C(=O)O)cc5Cl)c4)cccc32)c1C [Example 392, 3-Chloro-4-((4-(5-(4-(2,3-dimethylphenoxy)butanoyl)-2,3,4,5-tetrahydrobcnzo[b] [1,4]oxazepin-9-yl)-1H-pyrazol-1-yl)methyl)-5-fluorobenzoic acid]
1500 nM | Cc1cccc(OCCCC(=O)N2CCCOc3c(-c4cnn(Cc5cccc(N(C)C(=O)NCS(=O)(=O)O)c5)c4)cccc32)c1C [Example 526, (3-(3-((4-(5-(4-(2,3-Dimethylphenoxy)butanoyl)-2,3,4,5-tetrahydrobenzo [b][1,4]oxazepin-9-yl)-1H-pyrazol-1-yl)methyl)phenyl)-3-methylureido) methanesulfonic acid]
185 nM | [2H]C([2H])(COC(=O)N1CCCOc2c(-c3cnn(Cc4c(F)cc(C(=O)O)cc4Cl)c3)cccc21)Oc1cccc(Cl)c1C [Example 418, 3-Chloro-4-((4-(5-((2-(3-chloro-2-methylphenoxy)-2,2-dideuteroethoxy)carbonyl)-2,3,4,5-tetrahydrobenzo[b][1,4]oxazepin-9-yl)-1H-pyrazol-1-yl)methyl)-5-fluorobenzoic acid]
49 nM | Cc1cccc(OCCCC(=O)N2CCSc3c(-c4cnn(Cc5c(F)cc(C(=O)NCCC(=O)O)cc5Cl)c4)cccc32)c1C [Example 575, 3-(3-Chloro-4-((4-(4-(4-(2,3-dimethylphenoxy)butanoyl)-3,4-dihydro-2H-benzo[b][1,4]thiazin-8-yl)-1H-pyrazol-1-yl)methyl)-5-fluorobenzamido) propanoic acid]
2600 nM | Cc1cccc(OCCCC(=O)N2CCCc3c(-c4cnn(Cc5cccc(C(=O)N(CC(=O)O)CC(=O)O)c5)c4)cccc32)c1C [Example 475, 2,2′-(3-((4-(1-(4-(2,3-Dimethylphenoxy)butanoyl)-1,2,3,4-tetrahydroquinolin-5-yl)-1H-pyrazol-1-yl)methyl)benzoylazanediyl)diacetic acid]
107 nM | Cc1cccc(OCCCC(=O)N2CCCc3c(-c4cnn(Cc5cccc(NC(=O)NCC(=O)O)c5)c4)cccc32)c1C [Example 83, 2-(3-(3-((4-(1-(4-(2,3-Dimethylphenoxy)butanoyl)-1,2,3,4-tetrahydroquinolin-5-yl)-1H-pyrazol-1-yl)methyl)phenyl)ureido)acetic acid]
1520 nM | Cc1c(Cl)cccc1OCCCC(=O)N1CCCOc2c(-c3cnn(Cc4ccc(C(=O)N[C@@H](CC(=O)O)C(=O)O)cc4)c3)cccc21 [Example 767, (S)-2-(4-((4-(5-(4-(3-Chloro-2-methylphenoxy)butanoyl)-2,3,4,5-tetrahydrobenzo[b][1,4]oxazepin-9-yl)-1H-pyrazol-1-yl)methyl)benzamido)succinic acid]
26 nM | Cc1cccc(OCCCC(=O)N2C[C@@H]3C[C@@H]3c3c(-c4cnn(Cc5cccc(C(=O)N[C@H]6CCOC6=O)c5)c4)cccc32)c1C [Example 891, 3-((4-((1aR,7bS)-3-(4-(2,3-Dimethylphenoxy)butanoyl)-1a,2,3,7b-tetrahydro-1H-cyclopropa[c]quinolin-7-yl)-1H-pyrazol-1-yl)methyl)-N-((S)-2-oxotetrahydrofuran-3-yl)benzamide]
589 nM | Cc1cccc(OCCOC(=O)N2CCOc3c(-c4cnn(Cc5cccc(C(=O)NCCS(=O)(=O)O)c5)c4)cccc32)c1C [Example 182, 2-(3-((4-(4-((2-(2,3-Dimethylphenoxy)ethoxy)carbonyl)-3,4-dihydro-2H-benzo[b] [1,4]oxazin-8-yl)-1H-pyrazol-1-yl)methyl)benzamido) ethanesulfonic acid]
175 nM | Cc1c(Cl)cccc1OCCCC(=O)N1CCSc2c(-c3cnn(Cc4cccc(C(=O)N[C@@H](CC[N+](C)(C)C)C(=O)O)c4)c3)cccc21 [Example 617, (S)-3-Carboxy-3-(3-((4-(4-(4-(3-chloro-2-methylphenoxy)butanoyl)-3,4-dihydro-2H-benzo[b][1,4]thiazin-8-yl)-1H-pyrazol-1-yl)methyl)benzamido)-N,N,N-trimethylpropan-1-aminium, TFA salt]
40 nM | Cc1c(Cl)cccc1OCCCC(=O)N1CCSc2c(-c3cnn(Cc4cccc(C(=O)O)c4)c3)cccc21 [Example 354, 3-((4-(4-(4-(3-Chloro-2-methylphenoxy)butanoyl)-3,4-dihydro-2H-benzo[b] [1,4]thiazin-8-yl)-1H-pyrazol-1-yl)methyl)benzoic acid]
41 nM | Cc1c(Cl)cccc1OCCOC(=O)N1C[C@@H]2C[C@@H]2c2c(-c3cnn(Cc4cc(C(=O)NCC5(C(=O)O)CC5)ccc4Cl)c3)cccc21 [Example 699, 1-((4-Chloro-3-((4-((1aR,7bS)-3-((2-(3-chloro-2-methylphenoxy)ethoxy)carbonyl)-1a,2,3,7b-tetrahydro-1H-cyclopropa[c]quinolin-7-yl)-1H-pyrazol-1-yl)methyl)benzamido)methyl) cyclopropanecarboxylic acid]
2860 nM | Cc1cccc(OCCOC(=O)N2CCOc3c(-c4cnn(Cc5ccc(C(=O)O)cc5)c4)cccc32)c1C [Example 28, 4-((4-(4-((2-(2,3-Dimethylphenoxy)ethoxy)carbonyl)-3,4-dihydro-2H-benzo[b][1,4]oxazin-8-yl)-1H-pyrazol-1-yl)methyl)benzoic acid]
664 nM | Cc1cccc(OCCCC(=O)N2CCCc3c(-c4cccc(COC(=O)N[C@H](CO)C(=O)O)c4)cccc32)c1C [Example 282, (R)-2-((3-(1-(4-(2,3-Dimethylphenoxy)butanoyl)-1,2,3,4-tetrahydroquinolin-5-yl)benzyloxy)carbonylamino)-3-hydroxypropanoic acid]
49 nM | Cc1c(Cl)cccc1OCCCC(=O)N1CCSc2c(-c3cnn(Cc4cccc(C(=O)NCCS(=O)(=O)O)c4)c3)cccc21 [Example 564, 2-(3-((4-(4-(4-(3-Chloro-2-methylphenoxy)butanoyl)-3,4-dihydro-2H-benzo[b][1,4]thiazin-8-yl)-1H-pyrazol-1-yl)methyl)benzamido) ethanesulfonic acid]
43 nM | Cc1c(Cl)cccc1OCCCC(=O)N1CCSc2c(-c3cnn(Cc4c(F)cc(C(=O)NCCC[C@H](N)C(=O)O)cc4Cl)c3)cccc21 [Example 583, (S)-2-Amino-5-(3-chloro-4-((4-(4-(4-(3-chloro-2-methylphenoxy)butanoyl)-3,4-dihydro-2H-benzo[b][1,4]thiazin-8-yl)-1H-pyrazol-1-yl)methyl)-5-fluorobenzamido) pentanoic acid]
5020 nM | Cc1cccc(OCCCC(=O)N2CCCc3c(-c4cccc(COC(=O)N[C@@H](CC(=O)O)C(=O)O)c4)cccc32)c1C [Example 268, (S)-2-((3-(1-(4-(2,3-Dimethylphenoxy)butanoyl)-1,2,3,4-tetrahydroquinolin-5-yl)benzyloxy)carbonylamino)succinic acid]

Compound | EC50
(R)-5-tert-Butyl 1-methyl 2-(4- chloro-3-((4-((1aR,7bS)-3-((2- (3-chloro-2-methylphenoxy) ethoxy)carbonyl)-1a,2,3,7b- tetrahydro-1H-cyclopropa[c] quinolin-7-yl)-1H-pyrazol-1- yl)methyl)benzamido) pentanedioate [Example 669] | 1340 nM
